In BindingDB's records for doi:10.1016/j.bmc.2017.03.072 (Ewha Womans University, 2017):

The compounds below were run against Interleukin-6 (Human, UniProt P05231) (assay: ChEBML_1684684).
Procedure: Inhibition of IL-6 signaling pathway in human HepG2 cells transfected with p-STAT3-Luc assessed as reduction in IL-6 induced STAT3 phosphorylation preincubated for 1 hr followed by IL-6 induction measured after 10 mins by immunoblot analysis

Sequence of Interleukin-6 (P05231 whole entry): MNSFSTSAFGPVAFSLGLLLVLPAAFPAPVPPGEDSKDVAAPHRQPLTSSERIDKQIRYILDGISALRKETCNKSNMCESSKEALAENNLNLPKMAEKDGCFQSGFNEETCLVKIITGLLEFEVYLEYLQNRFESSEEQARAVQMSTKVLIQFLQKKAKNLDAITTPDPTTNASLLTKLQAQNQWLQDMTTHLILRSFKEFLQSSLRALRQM

Going from `C=C1C(C)=C(CCCC)C(=O)[C@]1(C)CN1c2ccccc2[C@]2(O)CCO[C@H]12` to `CCc1ccc(Nc2nc3cc(NC(=O)c4ccccc4)ccc3o2)cc1`, the IC50 falls from 20.7 µM to 5.8 µM (3.6-fold).

`CCc1ccc(Nc2nc3cc(N)ccc3o2)cc1` was tested, and the IC50 was 18.9 µM.
